{"source": "patent US20230263822A1", "about": "“MODULATION OF FACTOR 11 EXPRESSION” (Ionis Pharmaceuticals, Inc., priority 2008, published 2023)", "key": {"human Factor 11 mRNA [1]": {"system": "human Factor 11 mRNA", "test": "Dose-dependent inhibition of human Factor 11 in HepB3 cells, lipofectin (Example 7)", "format": "cell-based", "details": "for percent inhibition of Factor 11 mRNA relative to untreated control cells: ~16 hours", "protocol": "Cells were plated at a density of 4,000 cells per well and transfected using lipofectin reagent with 2.3 nM, 4.7 nM, 9.4 nM, 18.75 nM, 37.5 nM, and 75 nM concentrations of antisense oligonucleotide, as specified in Table 14. After a treatment period of approximately 16 hours, RNA was isolated from the cells and human Factor 11 mRNA levels were measured by quantitative real-time PCR. Human Factor 11 primer probe set RTS 2966 was used to measure mRNA levels. Factor 11 mRNA levels were adjusted according to total RNA content, as measured by RIBOGREEN. Results are presented as percent inhibition of Factor 11, relative to untreated control cells."}, "[2]": {"test": "Tolerability in CD1 mice: organ weight (Example 33)", "format": "in vivo", "details": "50 mg/kg s.c. twice a week, vs PBS control, normalized to body weight", "protocol": "Three days after the last dose was administered to all groups, the mice were sacrificed."}, "human Factor 11 mRNA [3]": {"system": "human Factor 11 mRNA", "test": "Dose-dependent inhibition of human Factor 11 in HepG2 cells, lipofectin 2.34-75 nM (Example 5)", "format": "cell-based", "details": "for percent inhibition of human Factor 11 mRNA relative to untreated control cells: ~16 hours", "protocol": "Cells were plated at a density of 10,000 cells per well and transfected using lipofectin reagent with 2.34 nM, 4.69 nM, 9.375 nM, 18.75 nM, 37.5 nM, and 75 nM concentrations of antisense oligonucleotide, as specified in Table 11. After a treatment period of approximately 16 hours, RNA was isolated from the cells and human Factor 11 mRNA levels were measured by quantitative real-time PCR. Human Factor 11 primer probe set RTS 2966 was used to measure mRNA levels. Factor 11 mRNA levels were adjusted according to total RNA content, as measured by RIBOGREEN. Results are presented as percent inhibition of human Factor 11, relative to untreated control cells."}}, "note": "pIC50: −log10 of the molar value."}
{"substance": "416925 (antisense GGTGCACAGTTTCTGGCAGG; 3-14-3 gapmer chemistry, further chemistry not given here) [compound 416925]", "values": [{"measurement": "pIC50", "setting": "human Factor 11 mRNA [1]", "result": 7.92}, {"measurement": "percent inhibition of Factor 11 mRNA relative to untreated control cells", "setting": "human Factor 11 mRNA [1]; 2.3 nM", "result": 26, "unit": "%"}, {"measurement": "percent inhibition of Factor 11 mRNA relative to untreated control cells", "setting": "human Factor 11 mRNA [1]; 4.7 nM", "result": 33, "unit": "%"}, {"measurement": "percent inhibition of Factor 11 mRNA relative to untreated control cells", "setting": "human Factor 11 mRNA [1]; 9.4 nM", "result": 45, "unit": "%"}, {"measurement": "percent inhibition of Factor 11 mRNA relative to untreated control cells", "setting": "human Factor 11 mRNA [1]; 18.75 nM", "result": 59, "unit": "%"}, {"measurement": "percent inhibition of Factor 11 mRNA relative to untreated control cells", "setting": "human Factor 11 mRNA [1]; 37.5 nM", "result": 72, "unit": "%"}, {"measurement": "percent inhibition of Factor 11 mRNA relative to untreated control cells", "setting": "human Factor 11 mRNA [1]; 75 nM", "result": 60, "unit": "%"}, {"measurement": "Percent change in kidney weight", "setting": "[2]; 2 weeks", "result": "−4", "unit": "%"}, {"measurement": "Percent change in liver weight", "setting": "[2]; 2 weeks", "result": "+14%"}, {"measurement": "Percent change in spleen weight", "setting": "[2]; 2 weeks", "result": "−7", "unit": "%"}, {"measurement": "Percent change in kidney weight", "setting": "[2]; 4 weeks", "result": "−14", "unit": "%"}, {"measurement": "Percent change in liver weight", "setting": "[2]; 4 weeks", "result": "+14%"}, {"measurement": "Percent change in spleen weight", "setting": "[2]; 4 weeks", "result": "+33%"}, {"measurement": "Percent change in kidney weight", "setting": "[2]; 6 weeks", "result": "−2", "unit": "%"}, {"measurement": "Percent change in liver weight", "setting": "[2]; 6 weeks", "result": "+33%"}, {"measurement": "Percent change in spleen weight", "setting": "[2]; 6 weeks", "result": "+78%"}, {"measurement": "pIC50", "setting": "human Factor 11 mRNA [3]", "result": 7.89}, {"measurement": "percent inhibition of human Factor 11 mRNA relative to untreated control cells", "setting": "human Factor 11 mRNA [3]; 2.34 nM", "result": 24, "unit": "%"}, {"measurement": "percent inhibition of human Factor 11 mRNA relative to untreated control cells", "setting": "human Factor 11 mRNA [3]; 4.69 nM", "result": 34, "unit": "%"}, {"measurement": "percent inhibition of human Factor 11 mRNA relative to untreated control cells", "setting": "human Factor 11 mRNA [3]; 9.375 nM", "result": 45, "unit": "%"}, {"measurement": "percent inhibition of human Factor 11 mRNA relative to untreated control cells", "setting": "human Factor 11 mRNA [3]; 18.75 nM", "result": 56, "unit": "%"}, {"measurement": "percent inhibition of human Factor 11 mRNA relative to untreated control cells", "setting": "human Factor 11 mRNA [3]; 37.5 nM", "result": 67, "unit": "%"}, {"measurement": "percent inhibition of human Factor 11 mRNA relative to untreated control cells", "setting": "human Factor 11 mRNA [3]; 75 nM", "result": 72, "unit": "%"}]}
{"substance": "416999 (antisense GCACAGTTTCTGGCAGGCCT; 2-13-5 gapmer chemistry, further chemistry not given here) [compound 416999]", "values": [{"measurement": "pIC50", "setting": "human Factor 11 mRNA [1]", "result": 7.92}, {"measurement": "percent inhibition of Factor 11 mRNA relative to untreated control cells", "setting": "human Factor 11 mRNA [1]; 2.3 nM", "result": 19, "unit": "%"}, {"measurement": "percent inhibition of Factor 11 mRNA relative to untreated control cells", "setting": "human Factor 11 mRNA [1]; 4.7 nM", "result": 33, "unit": "%"}, {"measurement": "percent inhibition of Factor 11 mRNA relative to untreated control cells", "setting": "human Factor 11 mRNA [1]; 9.4 nM", "result": 42, "unit": "%"}, {"measurement": "percent inhibition of Factor 11 mRNA relative to untreated control cells", "setting": "human Factor 11 mRNA [1]; 18.75 nM", "result": 60, "unit": "%"}, {"measurement": "percent inhibition of Factor 11 mRNA relative to untreated control cells", "setting": "human Factor 11 mRNA [1]; 37.5 nM", "result": 71, "unit": "%"}, {"measurement": "percent inhibition of Factor 11 mRNA relative to untreated control cells", "setting": "human Factor 11 mRNA [1]; 75 nM", "result": 59, "unit": "%"}, {"measurement": "Percent change in kidney weight", "setting": "[2]; 2 weeks", "result": "−9", "unit": "%"}, {"measurement": "Percent change in liver weight", "setting": "[2]; 2 weeks", "result": "+13%"}, {"measurement": "Percent change in spleen weight", "setting": "[2]; 2 weeks", "result": "+7%"}, {"measurement": "Percent change in kidney weight", "setting": "[2]; 4 weeks", "result": "−6", "unit": "%"}, {"measurement": "Percent change in liver weight", "setting": "[2]; 4 weeks", "result": "+30%"}, {"measurement": "Percent change in spleen weight", "setting": "[2]; 4 weeks", "result": "+22%"}, {"measurement": "Percent change in kidney weight", "setting": "[2]; 6 weeks", "result": "−7", "unit": "%"}, {"measurement": "Percent change in liver weight", "setting": "[2]; 6 weeks", "result": "+47%"}, {"measurement": "Percent change in spleen weight", "setting": "[2]; 6 weeks", "result": "+38%"}, {"measurement": "pIC50", "setting": "human Factor 11 mRNA [3]", "result": 7.85}, {"measurement": "percent inhibition of human Factor 11 mRNA relative to untreated control cells", "setting": "human Factor 11 mRNA [3]; 2.34 nM", "result": 10, "unit": "%"}, {"measurement": "percent inhibition of human Factor 11 mRNA relative to untreated control cells", "setting": "human Factor 11 mRNA [3]; 4.69 nM", "result": 26, "unit": "%"}, {"measurement": "percent inhibition of human Factor 11 mRNA relative to untreated control cells", "setting": "human Factor 11 mRNA [3]; 9.375 nM", "result": 42, "unit": "%"}, {"measurement": "percent inhibition of human Factor 11 mRNA relative to untreated control cells", "setting": "human Factor 11 mRNA [3]; 18.75 nM", "result": 62, "unit": "%"}, {"measurement": "percent inhibition of human Factor 11 mRNA relative to untreated control cells", "setting": "human Factor 11 mRNA [3]; 37.5 nM", "result": 72, "unit": "%"}, {"measurement": "percent inhibition of human Factor 11 mRNA relative to untreated control cells", "setting": "human Factor 11 mRNA [3]; 75 nM", "result": 80, "unit": "%"}]}
{"substance": "417002 (antisense GGTGCACAGTTTCTGGCAGG; 2-13-5 gapmer chemistry, further chemistry not given here) [compound 417002]", "values": [{"measurement": "pIC50", "setting": "human Factor 11 mRNA [1]", "result": 7.89}, {"measurement": "percent inhibition of Factor 11 mRNA relative to untreated control cells", "setting": "human Factor 11 mRNA [1]; 2.3 nM", "result": 24, "unit": "%"}, {"measurement": "percent inhibition of Factor 11 mRNA relative to untreated control cells", "setting": "human Factor 11 mRNA [1]; 4.7 nM", "result": 30, "unit": "%"}, {"measurement": "percent inhibition of Factor 11 mRNA relative to untreated control cells", "setting": "human Factor 11 mRNA [1]; 9.4 nM", "result": 46, "unit": "%"}, {"measurement": "percent inhibition of Factor 11 mRNA relative to untreated control cells", "setting": "human Factor 11 mRNA [1]; 18.75 nM", "result": 57, "unit": "%"}, {"measurement": "percent inhibition of Factor 11 mRNA relative to untreated control cells", "setting": "human Factor 11 mRNA [1]; 37.5 nM", "result": 71, "unit": "%"}, {"measurement": "percent inhibition of Factor 11 mRNA relative to untreated control cells", "setting": "human Factor 11 mRNA [1]; 75 nM", "result": 65, "unit": "%"}, {"measurement": "Percent change in kidney weight", "setting": "[2]; 2 weeks", "result": "+3%"}, {"measurement": "Percent change in liver weight", "setting": "[2]; 2 weeks", "result": "+14%"}, {"measurement": "Percent change in spleen weight", "setting": "[2]; 2 weeks", "result": "+29%"}, {"measurement": "Percent change in kidney weight", "setting": "[2]; 4 weeks", "result": "−5", "unit": "%"}, {"measurement": "Percent change in liver weight", "setting": "[2]; 4 weeks", "result": "+8%"}, {"measurement": "Percent change in spleen weight", "setting": "[2]; 4 weeks", "result": "+26%"}, {"measurement": "Percent change in kidney weight", "setting": "[2]; 6 weeks", "result": "−2", "unit": "%"}, {"measurement": "Percent change in liver weight", "setting": "[2]; 6 weeks", "result": "+35%"}, {"measurement": "Percent change in spleen weight", "setting": "[2]; 6 weeks", "result": "+108%"}, {"measurement": "pIC50", "setting": "human Factor 11 mRNA [3]", "result": 7.92}, {"measurement": "percent inhibition of human Factor 11 mRNA relative to untreated control cells", "setting": "human Factor 11 mRNA [3]; 2.34 nM", "result": 17, "unit": "%"}, {"measurement": "percent inhibition of human Factor 11 mRNA relative to untreated control cells", "setting": "human Factor 11 mRNA [3]; 4.69 nM", "result": 26, "unit": "%"}, {"measurement": "percent inhibition of human Factor 11 mRNA relative to untreated control cells", "setting": "human Factor 11 mRNA [3]; 9.375 nM", "result": 49, "unit": "%"}, {"measurement": "percent inhibition of human Factor 11 mRNA relative to untreated control cells", "setting": "human Factor 11 mRNA [3]; 18.75 nM", "result": 61, "unit": "%"}, {"measurement": "percent inhibition of human Factor 11 mRNA relative to untreated control cells", "setting": "human Factor 11 mRNA [3]; 37.5 nM", "result": 81, "unit": "%"}, {"measurement": "percent inhibition of human Factor 11 mRNA relative to untreated control cells", "setting": "human Factor 11 mRNA [3]; 75 nM", "result": 84, "unit": "%"}]}
